Measured values from the NIST ThermoML archive (doi:10.1021/je0501843).
Values joined by “and” are separate entries in the source; they are usually repeats but may differ in a detail not shown here. Identical values can stand only once.

Test: molar heat capacity at constant volume
Settings: Fluid (supercritical or subcritical phases), Vacuum adiabatic calorimetry

FC(F)C(F)(F)F [pentafluoroethane]
Settings	molar heat capacity at constant volume
306 K, Mass density=1202.8 kg/m3	102.77 J/K/mol
307 K, Mass density=1202.7 kg/m3	103.99 J/K/mol
308 K, Mass density=1202.5 kg/m3	103.96 J/K/mol
309 K, Mass density=1202.4 kg/m3	102.49 J/K/mol
310 K, Mass density=1202.3 kg/m3	101.48 J/K/mol
311 K, Mass density=1202.1 kg/m3	102.64 J/K/mol
312 K, Mass density=1202 kg/m3	103.21 J/K/mol
313 K, Mass density=1201.9 kg/m3	102.64 J/K/mol
314 K, Mass density=1201.7 kg/m3	103.24 J/K/mol
315 K, Mass density=1201.6 kg/m3	102.92 J/K/mol
316 K, Mass density=1201.5 kg/m3	103.09 J/K/mol
317 K, Mass density=1201.4 kg/m3	102.73 J/K/mol
318 K, Mass density=1201.2 kg/m3	102.19 J/K/mol
319 K, Mass density=1201.1 kg/m3	102.74 J/K/mol
320 K, Mass density=1201 kg/m3	102.92 J/K/mol
321 K, Mass density=1200.8 kg/m3	102.75 J/K/mol and 102.7 J/K/mol
322 K, Mass density=1079.2 kg/m3	106.18 J/K/mol and 102.47 J/K/mol
322 K, Mass density=1200.7 kg/m3	102.47 J/K/mol and 101.89 J/K/mol
323 K, Mass density=1079.1 kg/m3	105.94 J/K/mol and 104.02 J/K/mol
323 K, Mass density=1200.6 kg/m3	102.89 J/K/mol and 102.1 J/K/mol
324 K, Mass density=1079 kg/m3	105.71 J/K/mol and 105.31 J/K/mol
324 K, Mass density=1200.5 kg/m3	102.77 J/K/mol and 102.45 J/K/mol
325 K, Mass density=1078.9 kg/m3	104.71 J/K/mol and 104.09 J/K/mol
325 K, Mass density=1200.3 kg/m3	102.83 J/K/mol and 102.31 J/K/mol
326 K, Mass density=1078.8 kg/m3	103.25 J/K/mol and 103.34 J/K/mol
326 K, Mass density=1200.2 kg/m3	102.63 J/K/mol and 102.1 J/K/mol
327 K, Mass density=1078.7 kg/m3	104.31 J/K/mol
327 K, Mass density=1200.1 kg/m3	102.65 J/K/mol and 102.35 J/K/mol
328 K, Mass density=1078.6 kg/m3	105.03 J/K/mol and 104.85 J/K/mol
328 K, Mass density=1199.9 kg/m3	102.89 J/K/mol
328 K, Mass density=1200 kg/m3	103.64 J/K/mol
329 K, Mass density=1078.5 kg/m3	104.79 J/K/mol and 104.41 J/K/mol
329 K, Mass density=1199.8 kg/m3	102.81 J/K/mol and 102.69 J/K/mol
330 K, Mass density=1078.4 kg/m3	105.01 J/K/mol and 104.07 J/K/mol
330 K, Mass density=1199.7 kg/m3	103.09 J/K/mol
331 K, Mass density=1078.3 kg/m3	104.36 J/K/mol and 104.2 J/K/mol
331 K, Mass density=1199.6 kg/m3	102.64 J/K/mol
332 K, Mass density=976.3 kg/m3	110.56 J/K/mol and 112.17 J/K/mol
332 K, Mass density=1078.2 kg/m3	104.98 J/K/mol and 105.47 J/K/mol
332 K, Mass density=1199.4 kg/m3	103.45 J/K/mol
333 K, Mass density=976.2 kg/m3	107.88 J/K/mol and 109.12 J/K/mol
333 K, Mass density=1078.1 kg/m3	105.77 J/K/mol and 104.87 J/K/mol
333 K, Mass density=1199.3 kg/m3	103.83 J/K/mol
334 K, Mass density=976.2 kg/m3	105.25 J/K/mol and 107.12 J/K/mol
334 K, Mass density=1078 kg/m3	104.98 J/K/mol and 103.53 J/K/mol
334 K, Mass density=1199.2 kg/m3	103.39 J/K/mol
335 K, Mass density=976.1 kg/m3	106.11 J/K/mol and 106.99 J/K/mol
335 K, Mass density=1077.9 kg/m3	104.43 J/K/mol and 103.57 J/K/mol
335 K, Mass density=1199.1 kg/m3	102.85 J/K/mol
336 K, Mass density=976 kg/m3	107.32 J/K/mol and 107.23 J/K/mol
336 K, Mass density=1077.8 kg/m3	104.74 J/K/mol and 104.05 J/K/mol
336 K, Mass density=1198.9 kg/m3	102.26 J/K/mol
337 K, Mass density=975.9 kg/m3	107.6 J/K/mol and 108.43 J/K/mol
337 K, Mass density=1077.7 kg/m3	105.57 J/K/mol and 105.69 J/K/mol
337 K, Mass density=1198.8 kg/m3	103.71 J/K/mol
338 K, Mass density=975.9 kg/m3	107.08 J/K/mol and 107.59 J/K/mol
338 K, Mass density=1077.6 kg/m3	104.15 J/K/mol and 105.09 J/K/mol
338 K, Mass density=1198.7 kg/m3	104.23 J/K/mol
339 K, Mass density=883.4 kg/m3	114.19 J/K/mol
339 K, Mass density=975.8 kg/m3	106.21 J/K/mol and 106.6 J/K/mol
339 K, Mass density=1077.5 kg/m3	103.97 J/K/mol and 103.59 J/K/mol
339 K, Mass density=1198.5 kg/m3	104 J/K/mol
340 K, Mass density=883.3 kg/m3	112.9 J/K/mol
340 K, Mass density=975.7 kg/m3	106.54 J/K/mol and 107.42 J/K/mol
340 K, Mass density=1077.4 kg/m3	104.49 J/K/mol and 105.35 J/K/mol
341 K, Mass density=883.3 kg/m3	112.1 J/K/mol
341 K, Mass density=975.6 kg/m3	107.88 J/K/mol and 107.61 J/K/mol
341 K, Mass density=1077.3 kg/m3	105.62 J/K/mol and 105.16 J/K/mol
342 K, Mass density=883.2 kg/m3	111.03 J/K/mol
342 K, Mass density=975.6 kg/m3	107 J/K/mol
342 K, Mass density=1077.2 kg/m3	104.92 J/K/mol and 104.79 J/K/mol
343 K, Mass density=502.9 kg/m3	134.81 J/K/mol
343 K, Mass density=883.1 kg/m3	110.42 J/K/mol
343 K, Mass density=975.5 kg/m3	106.86 J/K/mol
343 K, Mass density=1077.1 kg/m3	104.17 J/K/mol and 104.84 J/K/mol
344 K, Mass density=502.9 kg/m3	132.16 J/K/mol
344 K, Mass density=585.8 kg/m3	125.97 J/K/mol
344 K, Mass density=883.1 kg/m3	111.3 J/K/mol
344 K, Mass density=975.4 kg/m3	106.41 J/K/mol
344 K, Mass density=1077 kg/m3	104.75 J/K/mol and 104.6 J/K/mol
345 K, Mass density=502.9 kg/m3	126.98 J/K/mol
345 K, Mass density=585.7 kg/m3	123.95 J/K/mol
345 K, Mass density=585.8 kg/m3	131.35 J/K/mol
345 K, Mass density=688.7 kg/m3	126.83 J/K/mol
345 K, Mass density=883 kg/m3	111.02 J/K/mol
345 K, Mass density=975.3 kg/m3	107.26 J/K/mol
345 K, Mass density=1076.9 kg/m3	105.11 J/K/mol and 104.72 J/K/mol
346 K, Mass density=403.2 kg/m3	120.08 J/K/mol
346 K, Mass density=502.9 kg/m3	120.15 J/K/mol
346 K, Mass density=585.7 kg/m3	120.32 J/K/mol
346 K, Mass density=585.8 kg/m3	127.65 J/K/mol
346 K, Mass density=688.7 kg/m3	123.21 J/K/mol
346 K, Mass density=774.1 kg/m3	115.2 J/K/mol
346 K, Mass density=883 kg/m3	110.89 J/K/mol
346 K, Mass density=975.3 kg/m3	107.47 J/K/mol and 107.62 J/K/mol
346 K, Mass density=1076.8 kg/m3	105.53 J/K/mol and 105.08 J/K/mol
347 K, Mass density=403.2 kg/m3	117.75 J/K/mol
347 K, Mass density=503 kg/m3	115.93 J/K/mol
347 K, Mass density=585.7 kg/m3	117.72 J/K/mol
347 K, Mass density=585.8 kg/m3	123.89 J/K/mol
347 K, Mass density=688.7 kg/m3	119.23 J/K/mol
347 K, Mass density=774.1 kg/m3	114.9 J/K/mol
347 K, Mass density=882.9 kg/m3	110.19 J/K/mol
347 K, Mass density=975.2 kg/m3	105.52 J/K/mol and 107.28 J/K/mol
347 K, Mass density=1076.7 kg/m3	105.04 J/K/mol and 104.54 J/K/mol
348 K, Mass density=403.3 kg/m3	116.59 J/K/mol
348 K, Mass density=503 kg/m3	118.49 J/K/mol
348 K, Mass density=585.7 kg/m3	124.85 J/K/mol and 118.08 J/K/mol
348 K, Mass density=688.7 kg/m3	117.7 J/K/mol
348 K, Mass density=774 kg/m3	114.62 J/K/mol
348 K, Mass density=882.8 kg/m3	109.75 J/K/mol
348 K, Mass density=975.1 kg/m3	106.21 J/K/mol and 107.41 J/K/mol
348 K, Mass density=1076.6 kg/m3	104.59 J/K/mol and 104.74 J/K/mol
349 K, Mass density=403.3 kg/m3	115.69 J/K/mol
349 K, Mass density=503 kg/m3	119.76 J/K/mol
349 K, Mass density=585.7 kg/m3	123.44 J/K/mol and 117.14 J/K/mol
349 K, Mass density=688.6 kg/m3	119.03 J/K/mol
349 K, Mass density=774 kg/m3	115.4 J/K/mol
349 K, Mass density=882.8 kg/m3	110.59 J/K/mol
349 K, Mass density=975 kg/m3	107.41 J/K/mol and 108.49 J/K/mol
349 K, Mass density=1076.6 kg/m3	105.38 J/K/mol and 105.95 J/K/mol
350 K, Mass density=403.4 kg/m3	113.67 J/K/mol
350 K, Mass density=503 kg/m3	116.82 J/K/mol
